This passage reports EC50 results from patent publication US9174964B2, “AMPK-activating piperidinyloxy-substituted 2,3-dihydro-1H-indene-1-amine compounds and pharmaceutical compositions including the same” (Rigel Pharmaceuticals, Inc., priority 2007, dated 2015).

The structures appear in SMILES notation. A value given as a limit tells only on which side of the number the result lay.

In this assay the target is AMPK. The assay is described as follows: AMPK activation, enzyme-linked immunosorbent assay. In kind it is biochemical. Conditions: ELISA. (ELISA stands for enzyme-linked immunosorbent assay.)

By EC50 is commonly meant the concentration needed to bring the measured effect to its halfway point. For the setting “Table 2, AMPK activation”, `O=C(N[C@H]1CCN(Cc2ccncc2)C1)c1ccc(OC2CCN(c3ccc(C(F)(F)F)cc3)CC2)cn1` [Compound 30, (S)-N-(1-(pyridin-4-ylmethyl)pyrrolidin-3-yl)-5-(1-(4-(trifluoromethyl)phenyl)piperidin-4-yloxy)picolinamide] showed a concentration for a half-maximal effect (EC50) below 100 nM.
Regarding `O=C(NC1CCN(Cc2ccncc2)CC1)c1cc2ccc(OC3CCN(c4ccc(OC(F)(F)F)cc4)CC3)cc2o1` [Compound 88, N-(1-(pyridin-4-ylmethyl)piperidin-4-yl)-6-(1-(4-(trifluoromethoxy)phenyl)piperidin-4-yloxy)benzofuran-2-carboxamide], under “Table 4, AMPK activation”, the EC50 was below 100 nM.
Compound `O=C(NC1CCNCC1)c1cc2ccc(OC3CCN(c4ccc(C(F)(F)F)cc4)CC3)cc2s1` [Compound 141, N-(piperidin-4-yl)-6-(1-(4-(trifluoromethyl)phenyl)piperidin-4-yloxy)benzo[b]thiophene-2-carboxamide] yielded an EC50 (Table 5, AMPK activation) of 100 to 500 nM.
For the compound `O=C(NC1CCN(Cc2ccncc2)CC1)c1cccc(OC2CCN(c3ccc(C(F)(F)F)cc3)CC2)n1` [Compound 43, N-(1-(pyridin-4-ylmethyl)piperidin-4-yl)-6-(1-(4-(trifluoromethyl)phenyl)piperidin-4-yloxy)picolinamide], the EC50 (Table 2, AMPK activation) was 1000 to 5000 nM.
As for `O=C(NC1CCN(Cc2ccncc2)CC1)c1cc2cc(OC3CCN(c4ccc(OC(F)(F)F)cc4)CC3)ccc2s1` [Compound 137, N-(1-(pyridin-4-ylmethyl)piperidin-4-yl)-5-(1-(4-(trifluoromethoxy)phenyl)piperidin-4-yloxy)benzo[b]thiophene-2-carboxamide], the EC50 (Table 5, AMPK activation) is below 100 nM.
In turn, `O=C(NC1CCN(Cc2ccc(N3CCOCC3)cc2)CC1)c1ccc(OC2CCN(c3ccc(C(F)(F)F)cc3)CC2)cn1` [Compound 40, N-(1-(4-morpholinobenzyl)piperidin-4-yl)-5-(1-(4-(trifluoromethyl)phenyl)piperidin-4-yloxy)picolinamide] showed an EC50 (Table 2, AMPK activation) below 100 nM.
Compound `NC(=O)c1ccc(CN2CCC(Oc3ccc4oc(C(=O)NC5CCN(Cc6ccccc6)CC5)cc4c3)CC2)cc1` [Compound 116, N-(1-benzylpiperidin-4-yl)-5-(1-(4-carbamoylbenzyl)piperidin-4-yloxy)benzofuran-2-carboxamide] gave an EC50 (Table 4, AMPK activation) of 100 to 500 nM.
Under “Table 4, AMPK activation”, `O=C(NC1CCN(Cc2ccncc2)CC1)c1cc2cc(OC3CCN(c4ccc(C(F)(F)F)cc4)CC3)ccc2o1` [Compound 76, N-(1-(pyridin-4-ylmethyl)piperidin-4-yl)-5-(1-(4-(trifluoromethyl)phenyl)piperidin-4-yloxy)benzofuran-2-carboxamide] had an EC50 of 100 to 500 nM.
Under “Table 2, AMPK activation”, `O=C(O)c1ccc(CN2CCC(NC(=O)c3ccc(OC4CCN(c5ccc(C(F)(F)F)cc5)CC4)nc3)CC2)cc1` [Compound 46, 4-((4-(6-(1-(4-(trifluoromethyl)phenyl)piperidin-4-yloxy)nicotinamido)piperidin-1-yl)methyl)benzoic acid] had an EC50 of 1000 to 5000 nM.
